Here are results for one substance from patent US20230160016A1, “METHODS OF SELECTING A TREATMENT FOR CANCER PATIENTS” (NOVARTIS AG, priority 2017, published 2023).

For this assay, the system named is HR-positive, HER2-negative, advanced breast cancer. Briefly: MONALEESA-2: PFS subgroup analysis by 2-gene signature (CDKN2A and E2F3) score. The format is in vivo, human. As to conditions: for Events: PFS events, median cut-off, both arms plus letrozole; for HR Across ARMCD: PFS, ribociclib arm vs PBO arm, both plus letrozole. The method, then: The patient population consisted of postmenopausal women with HR-positive, HER2-negative, advanced breast cancer, who had previously received no prior therapy for their advanced breast cancer.
Arm A: Ribociclib (600 mg once daily, days 1-21 of a 28-day cycle)+letrozole (2.5 mg once daily, days 1-28 of a 28-day cycle).
Arm B: Placebo (once daily, days 1-21 of a 28-day cycle)+letrozole (2.5 mg once daily days 1-28 of a 28-day cycle continuously).
PFS was defined as the time from the date of randomization to the date of first documented disease progression or death due to any cause. Discontinuation for non-RECIST progression was not counted as a PFS event. If a patient started other anti-neoplastic therapy or had two or more missing tumour assessments, PFS was censored at the last adequate tumour assessment, regardless of subsequent events.
A Cox Proportional Hazards model was fitted with treatment, liver/lung metastasis which is the study stratification factor, effects of the 16 genes, including CCNA2, CCND1, CCND2, CCND3, CCNE1, CDK2, CDK4, CDK6, CDKN1A, CDKN2A, CDKN2B, CDKN2C, E2F1, E2F3, RB1, and TFDP1, and gene by treatment interactions. […] A set of genes (CDKN2A and E2F3) with significant gene by treatment interactions in the model were identified through backward model selection. Signature scores of all samples were computed as the weighted sum of the gene expression values, where weights were the regression coefficients of respective gene by treatment interactions in the Cox Proportional Hazards model. Patients were classified into high and low subgroups using median signature score as the cut-off. Median PFS and hazard ratio together with 95% confidence intervals were computed for each patient subgroup.
Result: Using backward model selection, a 2-gene signature (CDKN2A and E2F3) was derived. FIG. 1Q and table 4 are subgroup analysis results, high- and low-gene signature expression groups are defined by median signature score as cut-off.

As to Ribociclib, the Events is, setting by setting: (high 2-gene signature (CDKN2A and E2F3) score) 30; (low 2-gene signature (CDKN2A and E2F3) score) 28. Further, the “HR Across ARMCD” value reads like this: (high 2-gene signature score) 0.73 (0.46-1.16); (low 2-gene signature score) 0.42 (0.26-0.66).
